Source: ChEMBL document CHEMBL1268895, “Synthesis of exotic polycycles such as cyclooctatrienes and fenestrenes with differential pro-apoptotic activities on human TRAIL-resistant metastatic cell lines” (Bioorg Med Chem Lett, 2010)

Legend:
THP-1 [1] = experiment: Induction of apoptosis in TRAIL-resistant human THP1 cells assessed as pro-apoptotic cells at 50 uM after 24 hrs by annexin-V staining; assay type: functional
SW-620 = experiment: Induction of apoptosis in TRAIL-resistant human SW620 cells assessed as pro-apoptotic cells at 50 uM after 24 hrs by annexin-V staining; assay type: functional
THP-1 [2] = experiment: Induction of apoptosis in TRAIL-resistant human THP1 cells after 24 hrs by annexin-V staining; assay type: functional, cell-based; conditions: THP-1, 24 h
THP-1 [3] = experiment: Induction of apoptosis in TRAIL-resistant human THP1 cells assessed as inhibition of caspase-8 activity; assay type: functional

Question: With `CC1(C)O[C@@H]2[C@]3(CCC[C@@H]4[C@@H]5[C@H]6[C@H](C=C(CO)[C@@]2(O)[C@]643)OC5(C)C)O1` as the compound, how does the Activity (THP-1 [1]) read?
Answer: 29%

Question: And the Activity (SW-620)?
Answer: 4%

Question: `CC1(C)O[C@@H]2C3=C(/C(CO)=C\C=C/[C@@H](CCc4ccccc4)[C@@H]3c3ccccc3)[C@@H]2O1` (relative stereo) was tested. Which EC50 (THP-1 [2]) did it give?
Answer: 49.3 µM

Question: What about the Activity (THP-1 [1]) of the same compound?
Answer: 98%

Question: What about the Activity (SW-620) of the same compound?
Answer: 58%

Question: Which results are given for `CC1(C)O[C@H]2C3=C4[C@@H](CCCC[C@@]42O1)[C@H](C1(O)CCCC1)/C=C\C=C/3CO`?
Answer: Activity (THP-1 [1]): 2%; Activity (SW-620): 22%

Question: For `CCCCCC1(CCCCC)O[C@H]2C=C(CO)[C@]3(O)[C@@H]4OC(C)(C)O[C@@]45CCC[C@@H]4[C@@H]1[C@@H]2[C@@]453`, which Activity (THP-1 [1]) is on record?
Answer: 5%

Question: What about the Activity (SW-620) of the same compound?
Answer: 5%

Question: How did the Activity (THP-1 [1]) turn out when `CC1(C)O[C@H]2C3=C4[C@@H](CCCC[C@@]42O1)[C@H](CCc1ccccc1)/C=C\C=C/3CO` was run?
Answer: 10%

Question: And the Activity (SW-620)?
Answer: 23%

Question: With `CC1(C)O[C@H]2C3=C4[C@@H](CCCC[C@@]42O1)[C@H](C1(O)CCCCC1)/C=C\C=C/3CO` as the compound, how does the Activity (THP-1 [1]) read?
Answer: 2%

Question: What about the Activity (SW-620) of the same compound?
Answer: 17%

Question: With `CC(C)CC(O)(CC(C)C)[C@@H]1/C=C\C=C(\CO)C2=C3[C@H]1CCCC[C@@]31OC(C)(C)O[C@@H]21` as the compound, how does the Activity (THP-1 [1]) read?
Answer: 36%

Question: And the “inhibition (INH)” value (THP-1 [3])?
Answer: 90%

Question: What about the Activity (SW-620) of the same compound?
Answer: 68%

Question: Which Activity (THP-1 [1]) does the source give for `CC1(C)O[C@@H]2[C@]3(CCC[C@@H]4[C@H]5CO[C@H]6C=C(CO)[C@@]2(O)[C@]43[C@@H]56)O1` here?
Answer: 94%

Question: And the Activity (SW-620)?
Answer: 4%

Question: `CC1(C)O[C@H]2C3=C4[C@@H](CCC[C@@]42O1)[C@H](C(C)(C)O)/C=C\C=C/3CO` was tested. Which Activity (THP-1 [1]) did it give?
Answer: 2%

Question: And the Activity (SW-620)?
Answer: 12%

Question: With `CCCCCC[C@@H]1/C=C\C=C(\CO)C2=C([C@H]3OC(C)(C)O[C@@H]23)[C@H]1c1ccccc1` as the compound, how does the EC50 (THP-1 [2]) read?
Answer: 52.9 µM

Question: And the Activity (THP-1 [1])?
Answer: 97%

Question: And the Activity (SW-620)?
Answer: 70%

Question: Which results are given for `CC1=C(O)C(=O)C=C2C1=CC=C1[C@@]2(C)CC[C@@]2(C)[C@@H]3C[C@](C)(C(=O)O)CC[C@]3(C)CC[C@]12C` [CELASTROL]?
Answer: EC50 (THP-1 [2]): 15 µM; Activity (THP-1 [1]): 99%; inhibition (INH) (THP-1 [3]): 90%; Activity (SW-620): 99%

Question: `CCCCC1(CCCC)O[C@H]2C=C(CO)[C@]3(O)[C@@H]4OC(C)(C)O[C@@]45CCC[C@@H]4[C@@H]1[C@@H]2[C@@]453` was tested. Which Activity (THP-1 [1]) did it give?
Answer: 15%

Question: And the Activity (SW-620)?
Answer: 5%

Question: What does the source list for `CC(C)CC(O)(CC(C)C)[C@@H]1/C=C\C=C(\CO)C2=C([C@H]3OC(C)(C)O[C@@H]23)[C@H]1c1ccccc1` (relative stereo)?
Answer: EC50 (THP-1 [2]): 32.4 µM; Activity (THP-1 [1]): 97%; Activity (SW-620): 66%

Question: Which results are given for `CCCCCC[C@@H]1/C=C\C=C(\CO)C2=C3[C@H]1CCCC[C@@]31OC(C)(C)O[C@@H]21`?
Answer: Activity (THP-1 [1]): 20%; inhibition (INH) (THP-1 [3]): 90%; Activity (SW-620): 70%

Question: What does the source list for `CC1(C)O[C@@H]2C3=C(/C(CO)=C\C=C/[C@@H](C4(O)CCCCC4)[C@@H]3c3ccccc3)[C@@H]2O1`?
Answer: Activity (THP-1 [1]): 3%; Activity (SW-620): 10%

Question: What does the source list for `CC(C)CC1(CC(C)C)O[C@H]2C=C(CO)[C@]3(O)[C@@H]4OC(C)(C)O[C@@]45CCC[C@@H]4[C@@H]1[C@@H]2[C@@]453`?
Answer: Activity (THP-1 [1]): 83%; Activity (SW-620): 13%

Question: Which results are given for `CC1(C)O[C@H]2C3=C4[C@@H](CCCC[C@@]42O1)[C@H](C(C)(C)O)/C=C\C=C/3CO`?
Answer: Activity (THP-1 [1]): 2%; Activity (SW-620): 16%

Question: Which Activity (THP-1 [1]) does the source give for `CC1(C)O[C@@H]2C3=C(/C(CO)=C\C=C/[C@@H](C(C)(C)O)[C@@H]3c3ccccc3)[C@@H]2O1` (relative stereo) here?
Answer: 2%

Question: And the Activity (SW-620)?
Answer: 15%

Question: Which results are given for `CC1(C)O[C@@H]2C3=C(/C(CO)=C\C=C/[C@@H](C4(O)CCCC4)[C@@H]3c3ccccc3)[C@@H]2O1`?
Answer: Activity (THP-1 [1]): 3%; Activity (SW-620): 12%
